These compounds were tested on human bronchial epithelial cells, CFTR corrector, plate reader (assay: rescue of ΔF508 CFTR function, airway epithelium – human bronchial epithelial cells, plate reader, cherry-pick, two tests, dose response (AID 743267)). Settings: measured here: test 1 replicate run.

Row | Compound | AC50
1 | C[C@@H]1CN([C@H](C)CO)S(=O)(=O)c2ccc(C#CC3CC3)cc2O[C@H]1CN(C)Cc1ccccn1 | 11.8 µM
2 | C[C@@H]1CN([C@H](C)CO)S(=O)(=O)c2ccc(-c3ccccc3)cc2O[C@H]1CN(C)Cc1ccccn1 | 16 µM
3 | C[C@H](CO)N1C[C@H](C)[C@@H](CN(C)Cc2ccc(Cl)c(Cl)c2)Oc2ccc(NC(=O)Nc3ccc(C(F)(F)F)cc3)cc2CC1=O | 16 µM
4 | COC(=O)C[C@@H]1CC[C@@H]2[C@H](COc3ccc(NC(=O)c4cc(C)on4)cc3C(=O)N2C)O1 | 3.67 µM
5 | COc1ccc(-c2ccc3c(c2)[C@H]2[C@H](CCN2S(=O)(=O)c2ccc(OC)cc2)[C@H](CO)N3C)cc1 | 1.17 µM
6 | CN1c2ccc(-c3ccc(C#N)cc3)cc2[C@H]2[C@H](CCN2S(=O)(=O)c2cccc(F)c2)[C@H]1CO | 0.128 µM
7 | CS(=O)(=O)N1CC(=O)N2[C@H](C1)[C@H](c1ccc(C#Cc3ccc(F)cc3)cc1)[C@@H]2CO | 23.9 µM
8 | C[C@@H]1CN([C@H](C)CO)C(=O)c2cc(NS(=O)(=O)c3ccc(Cl)cc3)ccc2O[C@@H]1CN(C)Cc1ccc(-c2ccccc2)cc1 | 46.3 µM
9 | O=C(C1CCCC1)N1CC(=O)N2[C@H](CO)[C@@H](c3ccc(-c4ccccc4F)cc3)[C@@H]2C1 | 4.47 µM

Same assay, conditions: measured here: test 2 replicate run

Row | Compound | AC50
10 | Cc1cccc(N2CCN(C(=O)c3ccc4[nH]c(C)c(C)c4c3)CC2)c1C | 1.85 µM
11 | O=C(CSC1=NCCN1)Nc1cccc([N+](=O)[O-])c1 | 14.1 µM
12 | COc1cc(/C=N/NC(=O)c2cc(-c3c(C)nn(-c4ccccc4)c3C)n[nH]2)ccc1O | 7.78 µM
13 | Cc1ccc(-c2csc3ncn(CC#N)c(=O)c23)cc1C | 35.7 µM
14 | COC(=O)c1[nH]c2c(c1C)C(=O)CC(c1cccc(OC)c1)C2 (stereo not drawn) | 0.965 µM
15 | O=c1ccc2c(-c3ccccc3)c3ccc(O)cc3oc-2c1 | 2.2 µM
16 | CN(Cc1ccco1)c1ncnc2ccc(-c3ccc4c(ccn4C)c3)cc12 | 1.77 µM
17 | COc1ccc2noc3c2c1C(=O)c1ccccc1-3 | 19.1 µM
18 | CN(CC(=O)NCCc1ccc(S(N)(=O)=O)cc1)CC(=O)Nc1ccc(Cl)c(C(F)(F)F)c1 | 27.9 µM
19 | CC(=NNC(=O)c1ccncc1)c1ccc2ccccc2c1O | 7.94 µM
20 | O=C(N/N=C/c1c(O)ccc2ccccc12)c1ccc(Br)o1 | 6.34 µM
21 | c1ccc(CCNc2nc(-c3ccccn3)nc3ccccc23)cc1 | 2.77 µM
22 | CC(=O)Oc1c(C)cc(Cl)cc1C(=O)Nc1ccc([N+](=O)[O-])cc1Cl | 1.38 µM
23 | Oc1cccc(/C=N/Nc2ccc(Cl)nn2)c1O | 16 µM
24 | Nc1nc(Cl)nc2c1ncn2C1CC(O)C(CO)O1 (stereo not drawn) | 2.73 µM
25 | O=C(N/N=C/c1c(O)ccc2ccccc12)C(=O)N1CCCC1 | 12.6 µM
26 | Cc1cccc(C(=O)N(Cc2ccco2)c2c(N)n(Cc3ccccc3)c(=O)[nH]c2=O)c1 | > 50 µM
27 | COc1ccc(OC)c(-c2cc(-c3cccnc3)nc(N)c2C#N)c1 | 2.43 µM
28 | CCN(CC)c1ccc(/C=N/NC(=O)c2ccco2)c(O)c1 | 2.3 µM
29 | O=C(Nc1ccc(Cl)cn1)c1cccc2ccccc12 | 8.46 µM
30 | CC(=O)Nc1ccc(NC(=O)COc2cccc3c2OC(C)(C)C3)cc1 | > 50 µM
31 | Cc1cccc(NC(=O)CN2CCN(C(=O)CN3C(=O)NC4(CC(C)CC(C)(C)C4)C3=O)CC2)c1C (stereo not drawn) | 2.69 µM
32 | Clc1ccc(CSc2nncn2-c2ccc3c(c2)OCCO3)cc1 | 9.62 µM
33 | COc1ccc(/C=C2/CCCc3ccccc3C2=O)cc1 | 1.92 µM
34 | COc1cccc2c1C(=O)c1c(O)c3c(c(O)c1C2=O)CC(O)(C(C)=O)CC3OC1CC(N(C)C)C(O)C(C)O1 (stereo not drawn) | 14.8 µM

Row | Compound | AC50
35 | CC(C)(C)C1COc2ccccc2N1C(=O)c1cccc(Cl)c1 (stereo not drawn) | 1.63 µM
36 | O=C1/C(=C\c2ccc(O)cc2)SC(=S)N1Cc1ccccc1 | 20.5 µM
37 | N#CC1c2ccccc2-c2ccccc2N1C(=O)c1ccccc1 (stereo not drawn) | 4.85 µM
38 | CC1(C)OC(c2ccccc2)=C/C(=C/C=C2C(=O)NC(=O)NC2=O)O1 | 24.8 µM
39 | COc1cccc(Sc2ccccc2/C=N/NC(N)=O)c1 | 41.6 µM
40 | C=CCCC(=O)Nc1nc(C)c(-c2csc(Nc3cc(OC)ccc3OC)n2)s1 | 10.3 µM
41 | CCOC(=O)/C(=C/C=C1\Sc2cc(C)c(C)cc2N1CC)C(C)=O | 13.6 µM
42 | Nc1ccn([C@@H]2O[C@H](C(=O)NCC(F)(F)F)[C@@H](O)[C@H]2O)c(=O)n1 | > 50 µM
43 | O=C1c2cccc(NCCCNCCO)c2C(=O)c2cccc(NCCCNCCO)c21 | 16 µM
44 | COc1ccc(OC)c(Nc2nc(-c3sc(NC(=O)C(C)(C)C)nc3C)cs2)c1 | 2.78 µM
45 | C=CCn1c(SCC(=O)N(C)C2CCS(=O)(=O)C2)nc2ccccc2c1=O (stereo not drawn) | 26.7 µM
46 | CNc1ccc2c3c(cccc13)C(=O)N(C)C2=O | 7.59 µM
47 | Cc1cc2oc(C(=O)NCCc3ccc(S(N)(=O)=O)cc3)c(C)c2cc1C | 0.901 µM
48 | Cc1ccc(C)c(CSc2nc3[nH]ncc3c(=O)[nH]2)c1 | 2.57 µM
49 | COC(=O)Cn1c(=NC(=O)c2cc(-c3cccs3)nc3ccccc23)sc2cc(S(N)(=O)=O)ccc21 | > 50 µM
50 | COc1ccc(-c2csc(NC(=S)NC(=O)/C=C/c3ccco3)n2)cc1OC | 2.19 µM
51 | Cc1cc(Br)cc(/C=N/NC(=O)c2ccc3c(c2)OCO3)c1O | 6.69 µM
52 | COc1cc(OC)c2c(-c3cccc(-c4cccc(N)c4)c3)cc(=O)oc2c1 | 3.43 µM
53 | COCCCN=C1NN=C(c2cc(C)n(Cc3ccccc3Cl)c2C)CS1 | 3.3 µM
54 | CC1=C/C(=C\C=C(C#N)C#N)N(C)c2ccccc21 | 12.9 µM
55 | Cc1cccc(Nc2nc(N)nc(-c3oc4ccccc4c3C)n2)c1 | 6.65 µM
56 | COc1ccc(Nc2nc(-c3sc(C)nc3C)cs2)cc1 | 0.272 µM
57 | COc1ccc(N(C)S(=O)(=O)c2cccc(C(=O)NCC3CCCCC3)c2)cc1 | 48.2 µM
58 | Cc1ccc(Nc2nc(-c3sc(C)nc3C)cs2)cc1 | 0.812 µM
59 | COc1ccc([C@H]2C[C@H](O)[C@@H](n3cc(-c4ccc(F)cc4)nn3)CN2Cc2cccs2)cc1 | 16 µM

Row | Compound | AC50
60 | COc1ccc(/C=C2\SC(=O)N(CCNC(=O)C3=COCCO3)C2=O)cc1 | 1.84 µM
61 | CCOc1ccccc1N1CCN(C(=O)c2cc3ccccc3cc2OC)CC1 | 3.45 µM
62 | Cc1cnc(NC(=O)CCc2ccccc2)s1 | 6.6 µM
63 | COc1ccc(CC(=O)NCc2ccc(-n3cccc3)cc2)cc1OC | 3.53 µM
64 | COc1cccc(-c2cc3nc(-c4ccccc4)cc(=O)n3[nH]2)c1 | 2.35 µM
65 | CCOC(=O)c1c(C)[nH]c(C(=O)N/N=C/c2ccc(OC)c(OC)c2)c1C | 2.93 µM
66 | COC(=O)c1ccc(C(=O)NC2CCCc3c2cnn3-c2cc(F)cc(F)c2)nc1 (stereo not drawn) | 8.13 µM
67 | CC(=O)c1ccc(Nc2cc(C)nc3c(C)cc(C)cc23)cc1 | 3.11 µM
68 | COc1cccc2c1C(=O)c1c(O)c3c(c(O)c1C2=O)CC(O)(C(=O)CO)CC3OC1CC(N(C)C)C(O)C(C)O1 (stereo not drawn) | 10.1 µM
69 | Nc1sc(-c2ccccc2)cc1-c1n[nH]c(=S)n1C1CCCCC1 | 2.45 µM
70 | O=C1NC(=Nc2cccnc2)S/C1=C/c1ccc(F)cc1 | 9.27 µM
71 | Cc1ccc(N(C)S(=O)(=O)c2ccc(-c3cnc(C4CC4)o3)cc2)cc1 | 1.17 µM
72 | C#C[C@]1(O)CC[C@H]2[C@@H]3CCc4cc(OC5CCCC5)ccc4[C@H]3CC[C@@]21C | 3.31 µM
73 | CC1=NCCc2c1[nH]c1cc(O)ccc21 | 41.4 µM
74 | Cc1ccc(/C=N/NC(=O)C2COc3ccccc3O2)s1 (stereo not drawn) | 7.28 µM
75 | N#Cc1nc(NCC(F)F)nc(Nc2cc(F)cc(F)c2)n1 | 16 µM
76 | CC1=Nc2cc(C(=O)NCC3CCCO3)ccc2Sc2ccc(C)cc21 (stereo not drawn) | 2.57 µM
77 | CC(=O)Nc1cccc(-c2ccnc3c2CC(C)(C(=O)Nc2ccc4c(c2)OCO4)O3)c1 (stereo not drawn) | 0.973 µM
78 | CCOC(=O)N1CCC(NC(=O)c2ccc3c(c2)N=C(C)c2c(C)ccc(C)c2S3)CC1 | 1.67 µM
79 | COc1cc(-c2noc(C)c2C#Cc2ccccn2)cc(OC)c1OC | 0.747 µM
80 | O=c1ccc2[n+]([O-])c3ccc(O)cc3oc-2c1 | 26.3 µM
81 | Cc1nn(C)c(C)c1/C=C/C(=O)O | > 50 µM
82 | CCN[C@H]1CN(CCCOC)S(=O)(=O)c2sc(S(N)(=O)=O)cc21 | 0.0398 µM
83 | Clc1ccc2c(c1)-c1ccccc1C1=NCCN12 | 2.72 µM
84 | COc1ccc(-c2nc(-c3cccc(C)c3)no2)cc1OC | 9.13 µM

Row | Compound | AC50
85 | Cc1ccc(/C=N/NC(=O)c2ccc3ccccc3c2)s1 | 2.05 µM
86 | Cc1cc(NCc2ccccn2)n2nc(C)c(-c3ccccc3)c2n1 | 4.77 µM
87 | COc1cc(OC)c(-c2c3cc(O)c(=O)cc-3oc3cc(O)c(O)cc23)cc1OC | 8.08 µM
88 | COc1ccc(C(=O)c2cc(OC)c(OC)c(OC)c2)cc1OC | 2.72 µM
89 | O=C1CCC(CCc2nc3ccccc3[nH]2)(c2ccccc2)C(=O)N1 (stereo not drawn) | 36.3 µM
90 | Cc1cccc(N2CCN(C(=O)c3c(-c4ccccc4)noc3C)CC2)c1C | 2.59 µM
91 | Nc1[nH]nc2ncc3cc4ccccc4nc3c12 | 17.7 µM
92 | Cn1nccc1C(=O)N/N=C/c1c(O)ccc2ccccc12 | 19.2 µM
93 | CCN(CC)c1ccc2c(cc1=O)[C@@H](NC)CCc1cc(OC)c(OC)c(OC)c1-2 | 1.31 µM
94 | O=C(NCCOc1ccccc1F)c1cc([N+](=O)[O-])ccc1N1CCOCC1 | 5.95 µM
95 | COc1ccccc1C(=O)Nc1ccc2c(c1)nc(CCNC(=O)c1ccco1)n2C | 5.48 µM
96 | Cc1nn(S(=O)(=O)c2ccc(Cl)cc2)c(C)c1Sc1ccc([N+](=O)[O-])cc1 | > 32 µM
97 | COc1ccccc1NC(=O)C(=O)NCC(c1ccco1)N1CCc2ccccc21 (stereo not drawn) | > 50 µM
98 | COc1cc(OC)cc(C(=O)c2c(C)c(C#N)c3ccccn23)c1 | 1.8 µM
99 | Cc1cc(Cl)cc(C)c1OCCn1ccnc1 | 4.68 µM
100 | C=CCN1C(=O)/C(=C/C=C2/N(CC)c3ccc(S(=O)(=O)N(C)C)cc3N2CC)SC1=S | 3.35 µM
101 | COc1ccc(C2=Nn3c(nnc3-c3ccccc3F)SC2)cc1OC1CCOC1 (stereo not drawn) | 22.3 µM
102 | COc1cc(-c2noc(C)c2C#Cc2ccsc2)cc(OC)c1OC | 0.537 µM
103 | COc1c(O[C@@H]2O[C@H](CO)[C@@H](O)[C@H](O)[C@H]2O)cc2c(c1OC)-c1ccc(SC)c(=O)cc1C(NC(C)=O)CC2 (stereo partly drawn) | > 50 µM
104 | COc1ccc(-c2cnc3c(NC=O)cc(-c4ccccc4)cn23)cc1OC | 0.793 µM
105 | O=C(N/N=C/c1cccs1)c1cc(C2CC2)nc2ccccc12 | 6.27 µM
106 | COc1ccc(C2=Nn3c(nnc3-c3ccccc3OC)SC2)cc1OC1CCOC1 (stereo not drawn) | 0.973 µM
107 | c1ccc2nc(N3CCNCC3)ccc2c1 | > 50 µM
108 | Cc1ccc(COc2ccccc2-c2cc(C(=O)N/N=C/c3cccnc3)[nH]n2)cc1 | > 50 µM

— PubChem BioAssay AID743267 (Broad Institute, 2014)
